# Results: patent US20250376498A1, “FUSION PROTEINS COMPRISING AN IMPROVED GLP-1 RECEPTOR AGONIST AND USES THEREOF” (Guangzhou Innogen Pharmaceutical Group Co., Ltd., priority 2022, published 2025)
# Read-outs that look alike come from different tables or passages of the source.
# Experiments:
# [1] = cited from earlier work
# [2] = cited from earlier work; remark: listed apart in the source
# [3] = marketed drugs, refs [22], [24]; cited from earlier work
# [4] = Determination of oxidation levels by LC-MS/MS; type: physicochemical
# Experimental: Following the protein oxidation measurement method described in Example 2 or by referring to Bettinger et al., the oxidation levels were determined. It was observed that the GLP-1 fusion protein YN-011 of the present invention was not oxidized at position W31, whereas the oxidation level of […] at the same position exceeded 5%. The oxidation occurred at the location indicated by the rectangular box in the structure of W31.
# db/db mice = assay: Multiple subcutaneous injections in db/db mice (type 2 diabetes model); type: in vivo; conditions: db/db mice
# Experimental: The impact of multiple subcutaneous injections of YN-011 on reducing blood glucose levels was evaluated in db/db mice (Jackson Laboratories, 000642). The mice were kept under normal lighting conditions (12 hours light/12 hours dark) and at room temperature, with free access to food (normal rodent chow) and water. Db/db mice lack leptin receptors and spontaneously develop obesity, hyperglycemia, and pancreatic B-cell atrophy by 4 weeks of age.
# Sixty affected db/db mice (33-45g) were divided into six groups of 10 mice each (5 males and 5 females) and administered 0 (PBS buffer control), 0.15, 0.3, 0.6, or 1.2 mg/kg of YN-011, or 0.3 mg/kg of Degludec via subcutaneous injection. Another group of wild-type mice (17-22g) with the same genetic background served as the normal control. The administration frequency was once every 3 days (Q3D), with a total of 9 doses administered over a period of 26 days. […] The duration of the hypoglycemic effect ranged from 34 to 72 hours within the dose range of 0.15-1.2 mg/kg.
# [5] = dulaglutide 1.5 mg, 26 weeks (Shi et al.)
# [6] = dulaglutide 1.5 mg in combination with metformin, 40 weeks (Dungan et al.)
# [7] = semaglutide 1 mg, 30 weeks (Sorli et al.)
molecule,measurement,setting,value
Dulaglutide: DPP-IV protected GLP-1 analog fused with an IgG4/Fc fragment,incidence of hypoglycemia,"[1]; dulaglutide 0.75 mg, 26 weeks (Shi et al.)",4.1%
same,incidence of hypoglycemia,[1]; [5],6.3%
same,incidence of nausea,[1]; [5],9.5%
same,reduction in HbA1c levels,[1]; [5],1.46%
same,incidence of hypoglycemia,[2]; [6],9%
same,incidence of nausea,[2]; [6],20%
same,reduction in FPG levels,[2]; [6],1.93%
same,reduction in HbA1c levels,[2]; [6],1.42%
same,half-life / elimination half-life,[3],113 to 132 h
CCCCCCCCCCCCCCCC(=O)N[C@@H](CCC(=O)NCCCC[C@H](NC(=O)[C@H](C)NC(=O)[C@H](C)NC(=O)[C@H](CCC(N)=O)NC(=O)CNC(=O)[C@H](CCC(=O)O)NC(=O)[C@H](CC(C)C)NC(=O)[C@H](Cc1ccc(O)cc1)NC(=O)[C@H](CO)NC(=O)[C@H](CO)NC(=O)[C@@H](NC(=O)[C@H](CC(=O)O)NC(=O)[C@H](CO)NC(=O)[C@@H](NC(=O)[C@H](Cc1ccccc1)NC(=O)[C@@H](NC(=O)CNC(=O)[C@H](CCC(=O)O)NC(=O)[C@H](C)NC(=O)[C@@H](N)Cc1cnc[nH]1)[C@@H](C)O)[C@@H](C)O)C(C)C)C(=O)N[C@@H](CCC(=O)O)C(=O)N[C@@H](Cc1ccccc1)C(=O)N[C@H](C(=O)N[C@@H](C)C(=O)N[C@@H](Cc1c[nH]c2ccccc12)C(=O)N[C@@H](CC(C)C)C(=O)N[C@H](C(=O)N[C@@H](CCCNC(=N)N)C(=O)NCC(=O)N[C@@H](CCCNC(=N)N)C(=O)NCC(=O)O)C(C)C)[C@@H](C)CC)C(=O)O [liraglutide],incidence of nausea,"[1]; liraglutide 1 mg, 24 weeks (Shuai et al.)",5.6%
same,incidence of nausea,"[1]; liraglutide 3 mg, 24 weeks (Shuai et al.)",10%
Semaglutide,incidence of nausea,"[1]; semaglutide 0.5 mg, 30 weeks (Sorli et al.)",20%
same,incidence of nausea,[1]; [7],24%
same,reduction in HbA1c levels,[1]; [7],1.55%
same,incidence of nausea,"[2]; semaglutide 1 mg in combination with metformin, 30 weeks (Ji et al.)",13.4%
same,half-life / elimination half-life,[3],137 to 161 h
Degludec [reference compound],oxidation level at position M253,[4],exceeding 5%
same,oxidation level at position W31,[4],exceeded 5%
same,average rate of fasting blood glucose reduction,"db/db mice; 0.3 mg/kg Q3D sc, average over measurement time points",63.6%
same,fasting blood glucose levels versus model control group,"db/db mice; Q3D sc, YN-011 all dose groups (P<0.001), Degludec 0.3 mg/kg",significant decrease
